Measurements as given in patent US20170157159A1, “COMBINATION TREATMENT OF ACUTE MYELOID LEUKEMIA AND MYELODYSPLASTIC SYNDROME I” (Boehringer Ingelheim International GmbH, priority 2013, published 2017).

System: human AML cell line MV4;11
Test: Nude mouse xenograft model derived from human AML cell line MV4;11: tumor growth
Format: in vivo
Conditions: 21 days, MV4;11 xenograft
Description: MV4;11 (CRL-9591) cells were obtained from ATCC. According to the Catalogue of Somatic Mutations in Cancer of the Wellcome Trust Sanger Institute, UK, this cell line carries a mutation in the FLT3 gene. Cells were cultured in T175 tissue culture flasks at 37° C. and 5% CO2. The medium used was IMDM supplemented with 10% fetal calf serum, 1% NEAA, 1% sodium pyruvate and 1% glutamine.
Mice were 8-9 week-old athymic female BomTac: NMRI-Foxn1^nu purchased from Taconic, Denmark. After arrival in the animal facility, mice were allowed to adjust to ambient conditions for at least 3 days before they were used for experiments. They were housed in Macrolon® type II cages in groups of 5 under standardized conditions at 21.5±1.5° C. temperature and 55±10% humidity. Standardized diet (PROVIMI KLIBA) and autoclaved tap water were provided ad libitum.
To establish subcutaneous tumors, MV4;11 cells were harvested and resuspended in PBS+5% FCS at 5×10^7 cells/ml. 50 μl of the cell suspension containing 2.5×10^6 cells was then injected subcutaneously into the right flank of the mice (1 site per mouse). Growth factor reduced BD Matrigel™ Matrix (BD Biosciences) was added to the cell suspension at a ratio of 1:1 before the injection.
Volasertib (BI 6727) was dissolved in hydrochloric acid (0.1 N), diluted with 0.9% NaCl and injected intravenously into the tail vein. An administration volume of 10 ml per kg body weight was used. The solution was freshly made up each injection day. Decitabine was dissolved in 0.9% NaCl and administered i.p. An administration volume of 10 ml per kg body weight was used.
The tumor diameter was measured three times a week with a caliper. The volume of each tumor [in mm^3] was calculated according to the formula “tumor volume=length*diameter^2*π/6”. To monitor side effects of treatment, mice were inspected daily for abnormalities and body weight was determined three times a week. […] In addition animals with tumor sizes exceeding 2000 mm^3 were sacrificed early during the studies for ethical reasons.
(§1) Animals were treated for 21 days.
as §1, §1

Row | Structure (SMILES) | T/C (ratio of median tumor volume of treated vs. control tumors) (Volasertib alone 10 mg/kg i.v. once weekly) [%] | T/C (ratio of median tumor volume of treated vs. control tumors) (Volasertib alone 20 mg/kg i.v. once weekly) [%] | T/C (ratio of median tumor volume of treated vs. control tumors) (decitabine alone 1.25 mg/kg i.p. twice weekly on two consecutive days) [%] | T/C (ratio of median tumor volume of treated vs. control tumors) (decitabine alone 2.5 mg/kg i.p. twice weekly on two consecutive days) [%]
1 | CC[C@@H]1C(=O)N(C)c2cnc(Nc3ccc(C(=O)N[C@H]4CC[C@H](N5CCN(CC6CC6)CC5)CC4)cc3OC)nc2N1C(C)C [Volasertib, N-[trans-4-[4-(cyclopropylmethyl)-1-piperazinyl]cyclohexyl]-4-[[(7R)-7-ethyl-5,6,7,8-tetrahydro-5-methyl-8-(1-methylethyl)-6-oxo-2-pteridinyl]amino]-3-methoxy-benzamide] | 76 | 38 |  | 
2 | Nc1ncn([C@H]2C[C@H](O)[C@@H](CO)O2)c(=O)n1 [decitabine, Decitabine] |  |  | 59 | 53
